The record followed here is patent US5475130A, “Anilide derivative” (Taisho Pharmaceutical Co., Ltd., priority 1990, dated 1995).

The target of the first experiment is T1, ACAT (acyl-coenzyme A cholesterol acyltransferase) (Oryctolagus cuniculus, UniProt G1SFD9).
T1 construct: A rabbit small intestinal microsome fraction was prepared in the usual way; from tissue; host or cells: rabbit small intestine, microsome fraction
T1 sequence (G1SFD9 1-524): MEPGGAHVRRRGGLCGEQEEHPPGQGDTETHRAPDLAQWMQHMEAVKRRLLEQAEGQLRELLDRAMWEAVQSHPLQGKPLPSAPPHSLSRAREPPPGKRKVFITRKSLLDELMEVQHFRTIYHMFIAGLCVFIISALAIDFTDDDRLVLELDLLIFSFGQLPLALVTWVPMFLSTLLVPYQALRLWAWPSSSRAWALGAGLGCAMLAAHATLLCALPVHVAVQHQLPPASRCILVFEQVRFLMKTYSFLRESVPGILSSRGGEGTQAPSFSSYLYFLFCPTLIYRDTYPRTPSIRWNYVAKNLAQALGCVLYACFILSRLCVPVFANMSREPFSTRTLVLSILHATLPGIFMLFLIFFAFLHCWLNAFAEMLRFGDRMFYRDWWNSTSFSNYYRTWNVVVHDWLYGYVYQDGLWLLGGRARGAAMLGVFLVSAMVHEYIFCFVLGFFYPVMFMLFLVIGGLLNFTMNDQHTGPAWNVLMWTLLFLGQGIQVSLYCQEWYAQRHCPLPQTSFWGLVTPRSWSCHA
The experiment is described as follows: ACAT inhibition activity (rabbit small intestinal microsome fraction, [1-^14 C]oleyl coenzyme A). It counts as biochemical.
Conditions: not given
The protocol:
(ACAT inhibition activity)
A rabbit small intestinal microsome fraction was prepared in the usual way, and the thus prepared microsome fraction was suspended in 0.04N potassiumphosphate buffer (pH 7.4) containing 0.1N sucrose, 0.03N ethylenediaminetetraacetic acid (EDTA) and 0.05N potassium chloride. Each of the drugs to be tested was dissolved in dimethyl sulfoxide.
The rabbit small intestinal microsome fraction suspension prepared above (250 μg as protein) and [1-^14 C]oleyl coenzyme A were added to 0.05N phosphate buffer (pH 7.4) containing 1% bovine serum albumin, followed by the addition of a drug to be tested with varied concentration,and the total volume was adjusted to 500 μl. The thus prepared mixture was incubated at 37° C. for 6 minutes, and the reaction was terminated by adding a mixture of chloroform and methanol (mixing ratio=2:1). After stirring, the resulting chloroform layer was collected and dried by concentration. […] A gel portion corresponding to cholesterol oleate was cut out and its radioactivity was measured using a liquid scintillation counter (LSC-3000, manufactured by Aroka Co., Ltd.). Samples obtained without using the drugs to be tested were also treated and measured in the same manner.
ACAT activity inhibition ratio (%)=(A-B)/B×100
A: ACAT activity when a drug to be tested is administered.
B: ACAT activity when a drug to be tested is not admistered.
What is called IC50 is the concentration that gives 50% inhibition. For the compound `CCCCCCCCCCCCCCSCC(=O)Nc1c(C(C)C)cccc1C(C)C` [Compound 1, N-(2,6-diisopropylphenyl)-2-(tetradecylthio)acetamide], the IC50 is 1 to 10 nM.

Still in this experiment, the particulars now being: rabbit small intestinal microsome fraction (250 μg as protein), 37° C., 6 minutes, pH 7.4, 1% bovine serum albumin; read-out: Activity (strength of the activity, IC50 value).
As for `CCCCCCCCCCCCSCC(=O)Nc1c(C(C)C)cccc1C(C)C` [Compound 4, N-(2,6-diisopropylphenyl)-2-(dodecylthio)acetamide], the IC50 lay within 10 to 100 nM.

`CCCCCCCCCCCCCCCCSCC(=O)Nc1c(C(C)C)cccc1C(C)C` [Compound 5, N-(2,6-diisopropylphenyl)-2-(hexadecylthio)acetamide]: the IC50 lay in the range of 10 to 100 nM. Turning to `CCCCCCCCCCCCCCCCCCSCC(=O)Nc1c(C(C)C)cccc1C(C)C` [Compound 6, N-(2,6-diisopropylphenyl)-2-(octadecylthio)acetamide], the IC50 lay within 1 to 10 nM.

With `CC(C)c1cccc(C(C)C)c1NC(=O)CSCc1ccc(C(C)(C)C)cc1` [Compound 8, N-(2,6-diisopropylphenyl)-2-(4-t-butylbenzylthio)acetamide], the IC50 lay within 10 to 100 nM. Still for that read-out and setting: the same measure for `CCCCCCCCCCCCCCSC(C)(C)C(=O)Nc1c(C(C)C)cccc1C(C)C` [Compound 9, N-(2,6-diisopropylphenyl)-2-methyl-2-(tetradecylthio)propanamide]: 10 to 100 nM. Same read-out and setting: the same measure for `CCCCCCCCCCCCCCSCCCC(=O)Nc1c(C(C)C)cccc1C(C)C` [Compound 10, N-(2,6-diisopropylphenyl)-4-(tetradecylthio)butanamide]: 1 to 10 nM; for `CCCCCCCCCCCCCCSCCC(=O)Nc1c(C(C)C)cccc1C(C)C` [Compound 12, N-(2,6-diisopropylphenyl)-3-(tetradecylthio)propanamide]: 1 to 10 nM.

Consider `CCCCCCCCCCCCCC[S+]([O-])CC(=O)Nc1c(C(C)C)cccc1C(C)C` (stereo not shown) [Compound 13], for which the IC50 was in the range of 10 to 100 nM. Consider `CCCCCCCCCCCCCCS(=O)(=O)CC(=O)Nc1c(C(C)C)cccc1C(C)C` [Compound 14, N-(2,6-diisopropylphenyl)-2-(tetradecylsulfonyl)acetamide], for which the concentration for half-maximal inhibition (IC50) lay in the range of 10 to 100 nM.

On to `CCCCCCCCCCCCS(=O)(=O)CC(=O)Nc1c(C(C)C)cccc1C(C)C` [Compound 17, N-(2,6-diisopropylphenyl)-2-(dodecylsulfonyl)acetamide], for which the IC50 was 10 to 100 nM. With `CCCCCCCCCCCCCCCCS(=O)(=O)CC(=O)Nc1c(C(C)C)cccc1C(C)C` [Compound 18, N-(2,6-diisopropylphenyl)-2-(hexadecylsulfonyl)acetamide], the IC50 lay in the range of 10 to 100 nM.

For the compound `CCCCCCCCCCCCCCSCC(=O)Nc1c(C)cccc1C(C)(C)C` [Compound 24, N-(2-methyl-6-t-butylphenyl)-2-(tetradecylthio)acetamide], the IC50 was 1 to 10 nM.
